Laboratory results as given in the NIST ThermoML archive (doi:10.1016/j.jct.2007.03.008).
± gives the expanded uncertainty stated by the source.

Assays:
[1] = Liquid; for mass density: 101.33 kPa
[2] = refractive index (Na D-line) (dimensionless); settings: 298.15 K; 101.33 kPa; Liquid; Standard Abbe refractometry

Structure (SMILES) | mass density ([1]; 298.15 K) [kg/m3] | vapor or sublimation pressure ([1]; 298.15 K) [kPa] | vapor or sublimation pressure ([1]; 308.15 K) [kPa] | vapor or sublimation pressure ([1]; 318.15 K) [kPa] | refractive index [2] | mass density ([1]; 298.15 K, Vibrating tube method) [kg/m3]
ClCCCCl [1,3-dichloropropane] | 1181.4 ± 0.3 | 2.75 ± 0.16 | 4.48 ± 0.17 | 6.87 ± 0.18 | 1.4459 ± 0.0007 | –
ClCCCCCl [1,4-dichlorobutane] | 1132.8 ± 0.2 | 0.99 ± 0.16 | 1.39 ± 0.16 | 2.13 ± 0.16 | 1.4519 ± 0.0007 | –
CCCCCl [1-chlorobutane] | – | 13.7 ± 0.4 | 21.32 ± 0.44 | 31.86 ± 0.51 | 1.3991 ± 0.0007 | 880.9 ± 0.1
O=C1CCCC1 [cyclopentanone] | 945.3 ± 0.2 | 1.71 ± 0.32 | 2.8 ± 0.33 | 4.4 ± 0.34 | 1.4347 ± 0.0007 | –
